Test results published in US20250313535A1, “ALPHA 4 BETA 7 INTEGRIN MODULATORS AND USES THEREOF” (DICE MOLECULES SV, INC., priority 2022, published 2025).

Columns and labels:
α4β7 integrin = α4β7 integrin (Homo sapiens (Human), UniProt P13612+P26010); assay: Integrin Adhesion Assay: Protocol 4 (MAdCAM-coated plate, RPMI-8866 cells with stable LOF mutation of the ITGB1 gene); type: cell-based; settings: Protocol 4; RPMI-8866 cells with LOF mutation of ITGB1, MAdCAM; read-out: Mean IC50 α4β7 KO
How it was run: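 RPMI-8866 cells with CRISPR/Cas9 knockout of ITGB1 (2×10^6/mL) were added to MAdCAM-coated wells with compound (1% DMSO) in HEPES/NaCl buffer with 1 mM MnCl2, 0.1 mM CaCl2 and 1% BSA, then incubated 1 h at 37 °C. After four washes, adherent cells were quantified by CellTiter-Glo luminescence. Percent inhibition versus DMSO and control compound was fitted to 4-parameter curves.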

α4β1 integrin = α4β1 integrin (Homo sapiens (Human), UniProt P05556+P13612); assay: Integrin Adhesion Assay: Protocol 5 (VCAM-coated plate, RPMI-8866 cells with stable LOF mutation of the ITGB7 gene); type: cell-based; settings: Protocol 5; RPMI-8866 cells with LOF mutation of ITGB7, VCAM; read-out: Mean IC50 α4β1 KO
Sequence of α4β1 integrin (P13612 34-1032): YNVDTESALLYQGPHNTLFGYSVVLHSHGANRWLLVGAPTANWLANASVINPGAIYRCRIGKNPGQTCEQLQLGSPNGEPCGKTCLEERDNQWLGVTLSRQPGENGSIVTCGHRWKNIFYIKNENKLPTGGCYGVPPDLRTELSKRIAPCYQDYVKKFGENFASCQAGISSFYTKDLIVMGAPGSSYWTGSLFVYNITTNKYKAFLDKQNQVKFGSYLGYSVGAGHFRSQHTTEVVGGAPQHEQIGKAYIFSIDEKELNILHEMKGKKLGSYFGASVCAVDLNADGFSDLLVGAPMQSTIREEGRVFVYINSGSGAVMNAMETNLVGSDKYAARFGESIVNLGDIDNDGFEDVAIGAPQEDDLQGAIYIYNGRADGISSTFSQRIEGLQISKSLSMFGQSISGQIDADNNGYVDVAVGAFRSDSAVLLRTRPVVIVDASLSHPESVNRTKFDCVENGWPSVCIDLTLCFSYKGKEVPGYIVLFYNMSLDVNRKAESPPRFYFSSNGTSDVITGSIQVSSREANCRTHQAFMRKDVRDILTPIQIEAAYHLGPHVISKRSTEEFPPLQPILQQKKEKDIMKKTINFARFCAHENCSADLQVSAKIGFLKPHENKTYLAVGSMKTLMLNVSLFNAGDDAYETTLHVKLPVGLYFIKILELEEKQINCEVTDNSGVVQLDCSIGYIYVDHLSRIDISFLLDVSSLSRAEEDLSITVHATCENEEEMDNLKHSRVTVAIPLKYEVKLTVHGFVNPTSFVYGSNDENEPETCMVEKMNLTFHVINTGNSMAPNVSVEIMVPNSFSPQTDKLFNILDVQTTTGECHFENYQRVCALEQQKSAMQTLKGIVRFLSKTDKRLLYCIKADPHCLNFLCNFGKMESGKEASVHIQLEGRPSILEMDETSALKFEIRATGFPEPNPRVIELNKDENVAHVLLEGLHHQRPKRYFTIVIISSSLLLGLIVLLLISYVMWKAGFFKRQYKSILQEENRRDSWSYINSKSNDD
Sequence of α4β1 integrin (P05556 21-798): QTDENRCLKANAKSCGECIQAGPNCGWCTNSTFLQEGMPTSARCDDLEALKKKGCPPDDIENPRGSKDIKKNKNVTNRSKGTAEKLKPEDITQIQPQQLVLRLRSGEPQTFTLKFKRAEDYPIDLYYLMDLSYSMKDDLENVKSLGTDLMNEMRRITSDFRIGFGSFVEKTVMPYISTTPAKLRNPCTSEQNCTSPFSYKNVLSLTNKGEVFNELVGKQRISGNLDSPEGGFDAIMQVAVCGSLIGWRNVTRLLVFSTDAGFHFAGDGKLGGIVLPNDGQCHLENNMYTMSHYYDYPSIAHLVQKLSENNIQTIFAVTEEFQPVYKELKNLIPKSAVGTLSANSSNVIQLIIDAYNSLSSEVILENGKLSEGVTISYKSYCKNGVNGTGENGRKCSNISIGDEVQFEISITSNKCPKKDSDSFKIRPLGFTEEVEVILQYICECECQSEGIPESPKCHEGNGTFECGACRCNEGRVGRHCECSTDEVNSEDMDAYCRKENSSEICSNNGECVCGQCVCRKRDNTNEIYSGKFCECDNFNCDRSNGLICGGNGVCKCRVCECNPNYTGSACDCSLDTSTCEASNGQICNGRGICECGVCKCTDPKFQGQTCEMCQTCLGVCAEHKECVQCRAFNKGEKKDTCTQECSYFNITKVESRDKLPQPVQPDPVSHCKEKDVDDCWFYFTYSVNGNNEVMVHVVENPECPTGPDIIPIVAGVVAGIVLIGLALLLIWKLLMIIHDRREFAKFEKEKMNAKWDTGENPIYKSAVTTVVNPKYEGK
How it was run: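 RPMI-8866 B cells with CRISPR/Cas9 ITGB7 knockout (clonal, verified by flow cytometry) adhered to VCAM-coated wells for 1 h at 37° C in HEPES/NaCl buffer with 1 mM MnCl2, 0.1 mM CaCl2, 1% BSA, 1% DMSO. Bound cells quantified by CellTiter-Glo luminescence after washing; % inhibition versus DMSO and control, 4-parameter fit.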

Sequence of α4β7 integrin (P13612 34-1032): as the sequence (P13612 34-1032) above
Sequence of α4β7 integrin (P26010 20-798): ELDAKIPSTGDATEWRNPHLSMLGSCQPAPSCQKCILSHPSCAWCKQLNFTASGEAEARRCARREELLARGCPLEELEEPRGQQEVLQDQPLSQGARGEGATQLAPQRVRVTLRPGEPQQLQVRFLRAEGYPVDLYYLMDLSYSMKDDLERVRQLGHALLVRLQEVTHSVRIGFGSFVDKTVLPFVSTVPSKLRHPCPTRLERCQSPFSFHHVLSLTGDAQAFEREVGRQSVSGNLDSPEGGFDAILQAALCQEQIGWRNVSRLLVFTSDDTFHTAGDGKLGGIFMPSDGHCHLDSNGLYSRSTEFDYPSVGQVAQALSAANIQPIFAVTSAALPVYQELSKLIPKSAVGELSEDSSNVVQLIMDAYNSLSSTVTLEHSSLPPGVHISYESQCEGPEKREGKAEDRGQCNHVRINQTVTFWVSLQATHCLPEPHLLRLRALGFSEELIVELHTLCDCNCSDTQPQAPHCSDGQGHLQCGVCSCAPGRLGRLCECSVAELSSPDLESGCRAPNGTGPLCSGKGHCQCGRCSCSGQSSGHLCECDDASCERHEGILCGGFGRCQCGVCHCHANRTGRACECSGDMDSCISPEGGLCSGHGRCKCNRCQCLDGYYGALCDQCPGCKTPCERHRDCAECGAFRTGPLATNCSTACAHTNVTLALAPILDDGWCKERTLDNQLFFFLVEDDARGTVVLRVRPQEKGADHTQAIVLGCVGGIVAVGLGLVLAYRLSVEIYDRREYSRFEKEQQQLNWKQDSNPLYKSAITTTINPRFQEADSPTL

SMILES | IC50 (α4β7 integrin) | IC50 (α4β1 integrin)
COc1ccc(CCN2CCCCC2)cc1-c1cccc2c(C[C@H](NC(=O)C3(C(F)(F)F)CCN(CC(F)(F)F)CC3)C(=O)O)cccc12 [Compound 731] | < 0.01 µM | 0.1 to 1 µM
COc1ccc2cc(CN3CCCCC3)cnc2c1-c1cccc2c(C[C@H](NC(=O)C3(C(F)(F)F)CCN(CC(F)(F)F)CC3)C(=O)O)cccc12 [Compound 733] | 0.01 to 0.1 µM | 0.1 to 1 µM
COc1cncc(OC)c1-c1cccc2c(C[C@H](NC(=O)C3(C(F)(F)F)CCN(CC(F)(F)F)CC3)C(=O)O)cccc12 [Compound 734] | < 0.01 µM | 0.1 to 1 µM
COc1c2c(cc(C)c1-c1cccc3c(C[C@H](NC(=O)C4(C(F)(F)F)CCN(CC(F)(F)F)CC4)C(=O)O)cccc13)CCN(C)C2 [Compound 735] | < 0.01 µM | > 1 µM
COc1c(-c2cccc3c(C[C@H](NC(=O)C4(C(F)(F)F)CCN(CC(F)(F)F)CC4)C(=O)O)cccc23)c(=O)n(C)c2ccccc12 [Compound 739] | 0.01 to 0.1 µM | > 1 µM
COc1cc(CCN2CCCCC2)ccc1-c1cccc2c(C[C@H](NC(=O)c3c(C)cccc3F)C(=O)O)cccc12 [Compound 740] | < 0.01 µM | > 1 µM
O=C(O)[C@H](Cc1cccc2c(-c3nccc4ccc(CCCN5C6CCCC5CC6)cc34)cccc12)NC(=O)C1(C(F)(F)F)CCN(CC(F)(F)F)CC1 [Compound 744] | < 0.01 µM | > 1 µM
O=C(O)[C@H](Cc1cccc2c(-c3nccc4ccc(CCCN5CCCCC5)cc34)cccc12)NC(=O)C1(C(F)(F)F)CCN(CC(F)F)CC1 [Compound 748] | < 0.01 µM | > 1 µM
O=C(O)[C@H](Cc1cccc2c(-c3ccccc3OCCN3CCCCC3)cccc12)NC(=O)C1(C(F)(F)F)CCN(CC(F)(F)F)CC1 [Compound 749] | 0.01 to 0.1 µM | > 1 µM
COc1ccc2c(c1-c1cccc3c(C[C@H](NC(=O)C4(C(F)(F)F)CCN(CC(F)(F)F)CC4)C(=O)O)cccc13)CN(CC(F)(F)F)CC2 [Compound 750] | 0.01 to 0.1 µM | > 1 µM
CCOCc1cc(CN2CCCCC2)c(-c2cccc3c(C[C@H](NC(=O)C4(C(F)(F)F)CCN(CC(F)(F)F)CC4)C(=O)O)cccc23)c(OC)c1 [Compound 751] | 0.01 to 0.1 µM | > 1 µM
COc1ccc2c(c1-c1cccc3c(C[C@H](NC(=O)C4(C(F)(F)F)CCN(CC(F)(F)F)CC4)C(=O)O)cccc13)CCN(CC(F)F)C2 [Compound 752] | 0.01 to 0.1 µM | > 1 µM
Cc1cc(CCN2CCCCC2)cnc1-c1cccc2c(C[C@H](NC(=O)C3(C(F)(F)F)CCN(CC(F)F)CC3)C(=O)O)cccc12 [Compound 756] | < 0.01 µM | > 1 µM
CN1CCC(c2cnc(-c3cccc4c(C[C@H](NC(=O)C5(C(F)(F)F)CCN(CC(F)(F)F)CC5)C(=O)O)cccc34)c(C(F)(F)F)c2)CC1 [Compound 757] | < 0.01 µM | 0.1 to 1 µM
CN1CCCC(c2cnc(-c3cccc4c(C[C@H](NC(=O)C5(C(F)(F)F)CCN(CC(F)(F)F)CC5)C(=O)O)cccc34)c(C(F)(F)F)c2)C1 (stereo partly drawn) [Compound 758] | < 0.01 µM | 0.1 to 1 µM
Cc1cc(C2CCN(C)CC2)cnc1-c1cccc2c(C[C@H](NC(=O)C3(C(F)(F)F)CCN(CC(F)(F)F)CC3)C(=O)O)cccc12 [Compound 759] | < 0.01 µM | > 1 µM
O=C(O)[C@H](Cc1cccc2c(-c3ncc(CN4CCCCC4)cc3Cl)cccc12)NC(=O)C1(C(F)(F)F)CCN(CC(F)(F)F)CC1 [Compound 761] | 0.01 to 0.1 µM | > 1 µM
O=C(O)[C@H](Cc1cccc2c(-c3ncc(C(=O)N4CCN(C5CC5)CC4)c4ccccc34)cccc12)NC(=O)C1(C(F)(F)F)CCN(CC(F)F)CC1 [Compound 763] | 0.01 to 0.1 µM | > 1 µM
O=C(O)[C@H](Cc1cccc2c(-c3nccc4ccc(CCCN5CCC6(CC5)CC6)cc34)cccc12)NC(=O)C1(C(F)(F)F)CCN(C2COC2)CC1 [Compound 773] | < 0.01 µM | 0.1 to 1 µM
COc1ccc2ccnc(-c3cccc4c(C[C@H](NC(=O)C5(C(F)(F)F)CCN(CC(F)(F)F)CC5)C(=O)O)cccc34)c2c1 [Compound 777] | 0.01 to 0.1 µM | > 1 µM
COc1ccc(CN2CC(F)C2)c(OC)c1-c1cccc2c(C[C@H](NC(=O)C3(C(F)(F)F)CCN(CC(F)(F)F)CC3)C(=O)O)cccc12 [Compound 781] | 0.01 to 0.1 µM | > 1 µM
COc1ccc(CN2CCCCC2)c(OC)c1-c1cccc2c(C[C@H](NC(=O)C3(C(F)(F)F)CCN(CC(F)(F)F)CC3)C(=O)O)cccc12 [Compound 784] | < 0.01 µM | 0.1 to 1 µM
COc1ccc(CN2CCOCC2)c(OC)c1-c1cccc2c(C[C@H](NC(=O)C3(C(F)(F)F)CCN(CC(F)(F)F)CC3)C(=O)O)cccc12 [Compound 785] | 0.01 to 0.1 µM | 0.1 to 1 µM
O=C(O)[C@H](Cc1cccc2c(-c3ncc(CN4CCCCC4)c4ccccc34)cccc12)NC(=O)C1(C(F)(F)F)CCN(CC(F)(F)F)CC1 [Compound 787] | < 0.01 µM | > 1 µM
COc1ccc(CN2CCCC(F)C2)c(OC)c1-c1cccc2c(C[C@H](NC(=O)C3(C(F)(F)F)CCN(CC(F)(F)F)CC3)C(=O)O)cccc12 (stereo partly drawn) [Compound 788] | < 0.01 µM | > 1 µM

Further lines, results first:

IC50 (α4β7 integrin) | IC50 (α4β1 integrin) | SMILES
< 0.01 µM | > 1 µM | O=C(O)[C@H](Cc1cccc2c(-c3ncc(CCCN4CCCCC4)c4ccccc34)cccc12)NC(=O)C1(C(F)(F)F)CCN(CC(F)(F)F)CC1 [Compound 730]
0.01 to 0.1 µM | > 1 µM | O=C(O)[C@H](Cc1cccc2c(-c3cc(CN4CCCCC4)cc4cccnc34)cccc12)NC(=O)C1(C(F)(F)F)CCN(CC(F)(F)F)CC1 [Compound 732]
< 0.01 µM | 0.1 to 1 µM | COc1ccc2c(c1-c1cccc3c(C[C@H](NC(=O)C4(C(F)(F)F)CCN(CC(F)(F)F)CC4)C(=O)O)cccc13)CCN(C)C2 [Compound 737]
0.01 to 0.1 µM | > 1 µM | COc1cc2ncccc2c(C)c1-c1cccc2c(C[C@H](NC(=O)C3(C(F)(F)F)CCN(CC(F)(F)F)CC3)C(=O)O)cccc12 [Compound 738]
0.01 to 0.1 µM | > 1 µM | COc1cc(C(F)(F)F)cc(CCN2CCCCC2)c1-c1cccc2c(C[C@H](NC(=O)C3(C(F)(F)F)CCN(CC(F)(F)F)CC3)C(=O)O)cccc12 [Compound 741]
0.01 to 0.1 µM | > 1 µM | COc1cccc(CCCN2CCC(F)(F)CC2)c1-c1cccc2c(C[C@H](NC(=O)C3(C(F)(F)F)CCN(CC(F)(F)F)CC3)C(=O)O)cccc12 [Compound 742]
< 0.01 µM | > 1 µM | O=C(O)[C@H](Cc1cccc2c(-c3ncc(CN4CCCCC4)c4c3CCCC4)cccc12)NC(=O)C1(C(F)(F)F)CCN(CC(F)(F)F)CC1 [Compound 746]
0.01 to 0.1 µM | > 1 µM | COc1ccc2c(c1-c1cccc3c(C[C@H](NC(=O)C4(C(F)(F)F)CCN(CC(F)(F)F)CC4)C(=O)O)cccc13)CN(CC(F)F)CC2 [Compound 753]
0.01 to 0.1 µM | > 1 µM | CN1CCc2cc(-c3cccc4c(C[C@H](NC(=O)C5(C(F)(F)F)CCN(CC(F)(F)F)CC5)C(=O)O)cccc34)ncc2C1 [Compound 754]
0.01 to 0.1 µM | > 1 µM | O=C(O)[C@H](Cc1cccc2c(-c3ncc(C(=O)N4CCN(C5CC5)CC4)c4ccccc34)cccc12)NC(=O)C1(C(F)(F)F)CCN(CC(F)(F)F)CC1 [Compound 762]
0.01 to 0.1 µM | > 1 µM | COc1c(-c2cccc3c(C[C@H](NC(=O)C4(C(F)(F)F)CCN(CC(F)F)CC4)C(=O)O)cccc23)cc(CN2CCCCC2)cc1C(F)(F)F [Compound 764]
0.01 to 0.1 µM | > 1 µM | COc1ccc2ccccc2c1-c1cccc2c(C[C@H](NC(=O)C3(C(F)(F)F)CCN(CC(F)(F)F)CC3)C(=O)O)cccc12 [Compound 765]
0.01 to 0.1 µM | > 1 µM | O=C(O)[C@H](Cc1cccc2c(-c3cccc4c3OCCO4)cccc12)NC(=O)C1(C(F)(F)F)CCN(CC(F)(F)F)CC1 [Compound 766]
< 0.01 µM | 0.1 to 1 µM | CCOCc1cc(OC)c(-c2cccc3c(C[C@H](NC(=O)C4(C(F)(F)F)CCN(CC(F)(F)F)CC4)C(=O)O)cccc23)cc1CN1CCCCC1 [Compound 768]
< 0.01 µM | 0.1 to 1 µM | COC(=O)[C@H](Cc1cccc2c(-c3ncc(CN(C)C)c4ccccc34)cccc12)NC(=O)C1(C(F)(F)F)CCN(CC(F)F)CC1 [Compound 778]
< 0.01 µM | 0.1 to 1 µM | COC(=O)[C@H](Cc1cccc2c(-c3c(OC)ccc(CN4CCC(C)C(F)(F)CC4)c3OC)cccc12)NC(=O)C1(C(F)(F)F)CCN(CC(F)(F)F)CC1 (stereo partly drawn) [Compound 779]
0.01 to 0.1 µM | > 1 µM | COc1ccc(CN2CCC(F)(F)CC2)c(OC)c1-c1cccc2c(C[C@H](NC(=O)C3(C(F)(F)F)CCN(CC(F)(F)F)CC3)C(=O)O)cccc12 [Compound 780]
< 0.01 µM | 0.1 to 1 µM | COc1ccc(CN2CCCC2)c(OC)c1-c1cccc2c(C[C@H](NC(=O)C3(C(F)(F)F)CCN(CC(F)(F)F)CC3)C(=O)O)cccc12 [Compound 782]
0.01 to 0.1 µM | > 1 µM | COc1ccc(CN2CCC(F)(F)C2)c(OC)c1-c1cccc2c(C[C@H](NC(=O)C3(C(F)(F)F)CCN(CC(F)(F)F)CC3)C(=O)O)cccc12 [Compound 783]
0.01 to 0.1 µM | > 1 µM | O=C(O)[C@H](Cc1cccc2c(-c3nccc4ccc(CN5CCCCC5)cc34)cccc12)NC(=O)C1(C(F)(F)F)CCN(CC(F)(F)F)CC1 [Compound 786]
